{"source": "patent US20260176289A1", "about": "“SMALL MOLECULE INHIBITORS OF KRAS PROTEINS” (Merck Sharp & Dohme LLC, priority 2022, published 2026)", "key": {"KRAS-G12V": {"target": "KRAS-G12V (Homo sapiens, UniProt P01116, G12V)", "sequence (P01116 with tags, fused parts or gaps isoform P01116-2 G12V)": "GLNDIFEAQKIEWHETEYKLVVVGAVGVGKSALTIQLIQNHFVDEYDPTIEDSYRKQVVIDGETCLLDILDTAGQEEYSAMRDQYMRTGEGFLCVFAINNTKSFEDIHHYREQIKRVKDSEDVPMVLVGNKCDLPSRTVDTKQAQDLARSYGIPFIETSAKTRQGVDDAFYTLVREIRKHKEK", "assay": "SOS-catalyzed nucleotide exchange assay (Procedure A, TR-FRET), KRAS-G12V", "format": "biochemical", "conditions": "nucleotide exchange, read-out: KRAS G12V GNE IC50", "summary_of_the_method": "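TR-FRET 520/495 nm ratio read after SOS-driven exchange of Bodipy-GDP for unlabeled GTP (3 mM) on biotinylated RAS bound to Tb-streptavidin. There was a 60 min compound preincubation, RT. Final RAS/SOS and reaction times: G12C 3 nM/40 nM; WT 1 nM/40 nM; NRAS 1.25 nM/40 nM, each 60 min. G12V was 1.25 nM/160 nM, 90 min.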"}, "SW620 cells": {"test_system": "SW620 cells", "assay": "Cellular phospho-ERK assay, SW620 cells (homozygous KRAS-G12V)", "format": "cell-based", "conditions": "Homo sapiens, SW-620, KRAS-G12V, 2 hours, read-out: SW620 pERK IC50", "summary_of_the_method": "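Overnight-plated cells on collagen received test compound (up to 30 μM final, threefold steps, ten concentrations) for two hours. After lysis at room temperature, phosphorylated and total ERK were quantified together by Alpha SureFire, and IC50 is based on the phospho-to-total signal ratio.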"}, "HRAS": {"target": "HRAS (Homo sapiens, UniProt P01112)", "sequence (P01112 with tags, fused parts or gaps)": "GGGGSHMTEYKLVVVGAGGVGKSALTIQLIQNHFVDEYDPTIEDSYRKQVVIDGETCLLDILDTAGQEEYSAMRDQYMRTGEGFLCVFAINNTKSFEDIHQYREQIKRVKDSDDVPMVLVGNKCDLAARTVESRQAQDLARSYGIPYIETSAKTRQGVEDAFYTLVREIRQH", "assay": "SOS-catalyzed nucleotide exchange assay (Procedure A, TR-FRET), HRAS", "format": "biochemical", "conditions": "read-out: HRAS GNE IC50", "summary_of_the_method": "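Signal ratio (520/495 nm, excitation 340 nm) reports Bodipy-GDP retention on biotinylated RAS after SOS-catalyzed exchange with 3 mM GTP. SOS was 40 nM, except 160 nM for G12V. Room-temperature exchange lasted 60 min (90 min for G12V), following a 60 min compound preincubation.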"}}}
{"smiles": "C#Cc1c(F)ccc2cc(O)cc(-c3nccc4c5c(N6CCOC[C@@](C)(O)C6)nc(OC[C@@]67CCCN6C[C@H](F)C7)nc5n(C)c34)c12", "note": "[Ex-18, (S)-4-(8-(8-ethynyl-7-fluoro-3-hydroxynaphthalen-1-yl)-2-(((2R,7aS)-2-fluorotetrahydro-1H-pyrrolizin-7a(5H)-yl)methoxy)-9-methyl-9H-pyrido[4′,3′:4,5]pyrrolo[2,3-d]pyrimidin-4-yl)-6-methyl-1,4-oxazepan-6-ol]", "values": [{"measurement": "IC50", "setting": "KRAS-G12V", "result": 3.85, "unit": "nM"}, {"measurement": "IC50", "setting": "SW620 cells", "result": 13.1, "unit": "nM"}, {"measurement": "IC50", "setting": "HRAS", "result": 1820, "unit": "nM"}]}
